Assays:
[1] = system: Phosphatidylinositol 4,5-bisphosphate 3-kinase catalytic subunit alpha isoform (Homo sapiens), P42336 [E545K]; details: at 10 µM
[2] = target: T1, Ephrin type-B receptor 6 (Homo sapiens) (UniProt O15197); assay: Selectivity interaction (KinomeScan (DiscoverX)) EUB0000655a EPHB6; details: at 10 µM
T1 sequence (whole entry): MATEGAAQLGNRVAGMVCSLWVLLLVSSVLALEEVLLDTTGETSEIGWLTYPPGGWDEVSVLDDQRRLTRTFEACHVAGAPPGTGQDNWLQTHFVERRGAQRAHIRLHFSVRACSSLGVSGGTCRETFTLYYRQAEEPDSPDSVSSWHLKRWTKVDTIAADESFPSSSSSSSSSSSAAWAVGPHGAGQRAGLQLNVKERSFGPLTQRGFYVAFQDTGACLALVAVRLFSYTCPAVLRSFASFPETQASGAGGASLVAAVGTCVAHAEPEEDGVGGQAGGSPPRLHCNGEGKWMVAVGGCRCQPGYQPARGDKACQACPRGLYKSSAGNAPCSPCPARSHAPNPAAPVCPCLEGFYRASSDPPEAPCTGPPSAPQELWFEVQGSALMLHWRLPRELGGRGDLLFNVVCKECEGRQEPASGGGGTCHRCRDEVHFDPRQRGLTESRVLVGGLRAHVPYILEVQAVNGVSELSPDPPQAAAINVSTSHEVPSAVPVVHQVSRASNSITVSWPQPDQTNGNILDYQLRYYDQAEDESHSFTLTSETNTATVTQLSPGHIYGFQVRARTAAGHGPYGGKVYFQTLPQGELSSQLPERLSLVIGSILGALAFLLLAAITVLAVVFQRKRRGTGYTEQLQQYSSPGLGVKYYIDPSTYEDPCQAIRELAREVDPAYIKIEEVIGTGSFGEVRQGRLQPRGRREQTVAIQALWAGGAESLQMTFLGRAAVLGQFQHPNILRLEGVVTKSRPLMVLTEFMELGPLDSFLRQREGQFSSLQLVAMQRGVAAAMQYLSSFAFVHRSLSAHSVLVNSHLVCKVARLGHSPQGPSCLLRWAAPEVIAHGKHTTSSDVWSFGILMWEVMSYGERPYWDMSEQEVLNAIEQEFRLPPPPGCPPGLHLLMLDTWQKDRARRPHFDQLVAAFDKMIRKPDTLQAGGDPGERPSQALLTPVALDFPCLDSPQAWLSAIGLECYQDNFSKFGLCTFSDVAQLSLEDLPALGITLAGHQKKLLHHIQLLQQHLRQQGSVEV

[3] = system: T2, Receptor-type tyrosine-protein kinase FLT3 (Homo sapiens), P36888 [R834Q]; assay: Selectivity interaction (KinomeScan (DiscoverX)) EUB0000607a FLT3; details: at 10 µM
T2 sequence (whole entry): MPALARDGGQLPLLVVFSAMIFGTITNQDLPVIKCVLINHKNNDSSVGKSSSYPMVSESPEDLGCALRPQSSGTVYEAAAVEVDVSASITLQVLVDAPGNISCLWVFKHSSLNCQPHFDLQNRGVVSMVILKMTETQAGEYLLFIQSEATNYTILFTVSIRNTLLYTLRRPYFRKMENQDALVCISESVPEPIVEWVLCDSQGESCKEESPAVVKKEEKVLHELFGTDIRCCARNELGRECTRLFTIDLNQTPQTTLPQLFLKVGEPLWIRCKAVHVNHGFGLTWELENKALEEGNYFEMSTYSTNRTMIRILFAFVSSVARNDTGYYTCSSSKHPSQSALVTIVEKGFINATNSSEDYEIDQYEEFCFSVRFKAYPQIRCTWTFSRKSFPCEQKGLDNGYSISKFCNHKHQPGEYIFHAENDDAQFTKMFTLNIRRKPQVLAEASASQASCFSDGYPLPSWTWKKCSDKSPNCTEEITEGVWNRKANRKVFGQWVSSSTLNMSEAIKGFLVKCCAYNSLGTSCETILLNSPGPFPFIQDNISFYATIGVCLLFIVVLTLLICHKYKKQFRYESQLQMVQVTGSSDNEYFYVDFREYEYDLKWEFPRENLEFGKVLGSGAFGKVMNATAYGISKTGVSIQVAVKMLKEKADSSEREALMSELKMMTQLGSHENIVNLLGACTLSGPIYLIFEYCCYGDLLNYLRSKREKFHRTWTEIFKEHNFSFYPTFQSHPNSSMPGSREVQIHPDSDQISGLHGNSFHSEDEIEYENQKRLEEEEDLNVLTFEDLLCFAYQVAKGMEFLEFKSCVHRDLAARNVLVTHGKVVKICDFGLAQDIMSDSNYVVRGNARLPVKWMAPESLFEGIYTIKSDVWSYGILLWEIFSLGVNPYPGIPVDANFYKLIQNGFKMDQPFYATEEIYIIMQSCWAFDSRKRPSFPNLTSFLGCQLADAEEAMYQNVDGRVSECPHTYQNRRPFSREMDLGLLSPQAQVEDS

[4] = target: T3, Histone-lysine N-methyltransferase SMYD3 (Homo sapiens) (UniProt Q9H7B4); assay: Selectivity interaction (Transferase panel (protein, RNA, and DNA methyltransferases. and EP300 (acetyltransferase))) EUB0000270b SMYD3
T3 sequence (whole entry): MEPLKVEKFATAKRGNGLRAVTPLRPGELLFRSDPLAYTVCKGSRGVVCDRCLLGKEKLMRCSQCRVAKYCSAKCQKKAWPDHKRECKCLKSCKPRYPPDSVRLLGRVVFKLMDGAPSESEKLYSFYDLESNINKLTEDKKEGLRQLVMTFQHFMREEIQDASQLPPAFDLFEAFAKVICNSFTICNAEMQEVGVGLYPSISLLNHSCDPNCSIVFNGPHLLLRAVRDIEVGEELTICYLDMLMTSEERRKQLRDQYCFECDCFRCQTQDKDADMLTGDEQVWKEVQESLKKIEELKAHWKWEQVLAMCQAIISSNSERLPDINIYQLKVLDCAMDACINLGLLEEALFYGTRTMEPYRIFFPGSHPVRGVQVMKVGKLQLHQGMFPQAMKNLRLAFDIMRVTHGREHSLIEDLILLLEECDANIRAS

[5] = target: Ephrin type-A receptor 7 (Homo sapiens) (UniProt Q15375); assay: Selectivity interaction (KinomeScan (DiscoverX)) EUB0000092b EPHA7; details: at 10 µM
Ephrin type-A receptor 7 (Homo sapiens), sequence (Q15375 28-998 limits assumed): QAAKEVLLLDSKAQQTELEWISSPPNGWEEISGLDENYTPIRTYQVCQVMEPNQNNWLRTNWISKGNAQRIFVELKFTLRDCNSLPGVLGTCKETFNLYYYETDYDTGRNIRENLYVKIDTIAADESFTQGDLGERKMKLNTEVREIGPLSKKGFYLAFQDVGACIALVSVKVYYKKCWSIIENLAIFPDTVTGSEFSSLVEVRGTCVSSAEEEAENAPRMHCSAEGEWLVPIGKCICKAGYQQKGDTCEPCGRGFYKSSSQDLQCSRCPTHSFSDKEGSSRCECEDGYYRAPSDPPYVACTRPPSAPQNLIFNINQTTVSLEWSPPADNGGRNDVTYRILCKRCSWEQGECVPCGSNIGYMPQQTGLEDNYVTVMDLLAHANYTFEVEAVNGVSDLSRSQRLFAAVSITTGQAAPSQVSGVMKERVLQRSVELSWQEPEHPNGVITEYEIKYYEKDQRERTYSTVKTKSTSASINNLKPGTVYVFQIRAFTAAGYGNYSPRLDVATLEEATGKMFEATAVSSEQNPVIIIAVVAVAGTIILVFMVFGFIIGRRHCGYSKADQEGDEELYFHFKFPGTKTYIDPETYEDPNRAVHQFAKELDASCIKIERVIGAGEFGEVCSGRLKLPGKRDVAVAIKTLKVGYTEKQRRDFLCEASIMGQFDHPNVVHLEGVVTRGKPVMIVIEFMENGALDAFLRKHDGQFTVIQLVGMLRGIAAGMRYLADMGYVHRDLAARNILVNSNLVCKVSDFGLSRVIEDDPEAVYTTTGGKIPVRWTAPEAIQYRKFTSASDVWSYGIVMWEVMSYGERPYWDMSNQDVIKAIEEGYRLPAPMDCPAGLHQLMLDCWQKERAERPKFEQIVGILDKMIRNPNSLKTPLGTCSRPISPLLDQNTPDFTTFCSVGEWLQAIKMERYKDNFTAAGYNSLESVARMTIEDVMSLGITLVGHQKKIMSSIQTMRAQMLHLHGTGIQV

[6] = target: Vascular endothelial growth factor receptor 3 (Homo sapiens, UniProt P35916); assay: Selectivity interaction (Kinase screening (Nanosyn)) EUB0000604a FLT4
Vascular endothelial growth factor receptor 3, sequence (P35916 whole entry): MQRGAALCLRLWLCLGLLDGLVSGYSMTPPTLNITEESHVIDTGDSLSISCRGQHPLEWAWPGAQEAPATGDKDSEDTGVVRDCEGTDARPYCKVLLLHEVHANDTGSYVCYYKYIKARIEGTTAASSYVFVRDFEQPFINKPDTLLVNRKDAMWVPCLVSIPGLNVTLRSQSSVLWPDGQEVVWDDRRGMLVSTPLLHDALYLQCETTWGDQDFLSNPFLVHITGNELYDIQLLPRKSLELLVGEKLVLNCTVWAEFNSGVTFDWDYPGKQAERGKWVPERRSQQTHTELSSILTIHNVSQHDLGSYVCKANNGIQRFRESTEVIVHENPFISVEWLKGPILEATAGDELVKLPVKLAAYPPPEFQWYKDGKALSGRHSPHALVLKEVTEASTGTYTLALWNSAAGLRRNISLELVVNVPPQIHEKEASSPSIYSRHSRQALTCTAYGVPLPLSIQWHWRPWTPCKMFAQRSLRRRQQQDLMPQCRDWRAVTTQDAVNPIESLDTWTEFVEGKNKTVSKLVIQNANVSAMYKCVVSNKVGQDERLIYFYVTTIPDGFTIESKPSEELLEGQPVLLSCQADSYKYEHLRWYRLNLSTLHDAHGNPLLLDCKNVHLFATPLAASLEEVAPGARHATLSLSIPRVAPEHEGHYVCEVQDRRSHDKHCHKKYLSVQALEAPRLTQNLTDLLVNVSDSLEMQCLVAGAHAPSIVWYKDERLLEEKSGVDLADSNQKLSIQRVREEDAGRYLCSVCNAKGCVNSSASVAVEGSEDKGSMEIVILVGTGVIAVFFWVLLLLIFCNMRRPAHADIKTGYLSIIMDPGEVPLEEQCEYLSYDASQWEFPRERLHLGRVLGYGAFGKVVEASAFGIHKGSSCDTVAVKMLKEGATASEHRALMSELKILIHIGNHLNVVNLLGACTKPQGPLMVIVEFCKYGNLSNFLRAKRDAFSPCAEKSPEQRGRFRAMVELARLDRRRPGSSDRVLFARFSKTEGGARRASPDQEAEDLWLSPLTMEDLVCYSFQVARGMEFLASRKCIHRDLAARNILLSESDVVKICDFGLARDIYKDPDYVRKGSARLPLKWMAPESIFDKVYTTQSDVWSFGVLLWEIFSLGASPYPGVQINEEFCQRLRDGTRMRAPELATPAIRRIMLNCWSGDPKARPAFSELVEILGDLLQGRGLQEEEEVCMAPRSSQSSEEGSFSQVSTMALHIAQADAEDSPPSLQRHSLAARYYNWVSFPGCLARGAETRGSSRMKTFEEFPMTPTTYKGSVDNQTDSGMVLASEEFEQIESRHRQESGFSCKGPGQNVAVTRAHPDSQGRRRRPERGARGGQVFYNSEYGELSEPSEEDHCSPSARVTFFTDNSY

Phosphatidylinositol 4,5-bisphosphate 3-kinase catalytic subunit alpha isoform (Homo sapiens), P42336 [E545K], sequence (P42336 whole entry E545K, canonical isoform): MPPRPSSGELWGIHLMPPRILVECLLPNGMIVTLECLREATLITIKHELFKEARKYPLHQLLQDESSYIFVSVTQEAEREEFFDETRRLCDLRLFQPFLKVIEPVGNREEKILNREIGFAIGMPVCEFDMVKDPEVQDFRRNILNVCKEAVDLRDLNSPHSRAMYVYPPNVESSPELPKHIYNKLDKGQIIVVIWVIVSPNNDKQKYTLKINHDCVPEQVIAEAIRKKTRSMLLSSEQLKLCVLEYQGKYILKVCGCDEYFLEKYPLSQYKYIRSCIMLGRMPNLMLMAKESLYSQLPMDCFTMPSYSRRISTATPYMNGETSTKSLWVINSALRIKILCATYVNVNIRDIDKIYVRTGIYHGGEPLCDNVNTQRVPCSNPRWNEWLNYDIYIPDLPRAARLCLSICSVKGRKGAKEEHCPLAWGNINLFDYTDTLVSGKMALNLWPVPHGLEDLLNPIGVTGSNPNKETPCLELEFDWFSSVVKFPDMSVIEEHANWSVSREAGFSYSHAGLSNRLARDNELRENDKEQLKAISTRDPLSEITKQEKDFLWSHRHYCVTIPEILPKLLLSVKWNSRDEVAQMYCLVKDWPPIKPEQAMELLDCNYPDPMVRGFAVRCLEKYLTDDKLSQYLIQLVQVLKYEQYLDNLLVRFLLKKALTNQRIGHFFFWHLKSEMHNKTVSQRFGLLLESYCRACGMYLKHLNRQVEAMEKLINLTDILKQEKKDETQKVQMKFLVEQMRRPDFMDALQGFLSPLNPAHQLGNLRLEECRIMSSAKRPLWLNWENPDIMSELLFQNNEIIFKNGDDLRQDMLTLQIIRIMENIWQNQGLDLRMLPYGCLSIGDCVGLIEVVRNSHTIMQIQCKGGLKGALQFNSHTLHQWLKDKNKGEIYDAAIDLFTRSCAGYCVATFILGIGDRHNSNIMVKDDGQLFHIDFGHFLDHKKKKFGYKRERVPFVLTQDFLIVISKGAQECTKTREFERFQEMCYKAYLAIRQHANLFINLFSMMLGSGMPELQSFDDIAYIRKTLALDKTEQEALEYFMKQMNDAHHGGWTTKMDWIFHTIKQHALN

SMILES: CCN(CC)CCCCNc1ncc2cc(-c3cc(OC)cc(OC)c3)c(NC(=O)NC(C)(C)C)nc2n1
- % of control [1]: 100%

SMILES: CN(C)CCOc1ccc(-c2nc(-c3ccncc3)c(-c3ccc4c(c3)CC/C4=N\O)[nH]2)cc1
- % of control [2]: 34%

SMILES: CNC(=O)Nc1ccc(-c2nc(N3CC4CCC(C3)O4)c3cnn(C4CCC5(CC4)OCCO5)c3n2)cc1
- % of control [3]: 79%

SMILES: Cc1cc(CN)cc(C)c1-c1ncn(C)c1-c1cncn1C
- % activity ([4]; at 1 µM): > 90%
- % activity ([4]; at 10 µM): > 80%

SMILES: CCC(=O)N1CCN(c2ccc(-n3c(=O)ccc4cnc5ccc(-c6cnc7ccccc7c6)cc5c43)cc2C(F)(F)F)CC1
- % of control [5]: 98%

SMILES: Cc1cnc(Nc2ccc(F)cc2Cl)nc1-c1c[nH]c(C(=O)N[C@H](CO)c2cccc(Cl)c2)c1
- % of inhibition [6]: 8%

Reference: ChEMBL document CHEMBL5465560, “Selectivity Literature for EUbOPEN Chemogenomic Library” (2024)
